Reference: the NIST ThermoML archive (doi:10.1016/j.tca.2016.04.001)
± gives the expanded uncertainty stated by the source.

Experiment: xn = mol fraction of the nth substance listed
Settings: 87 kPa, Liquid, Vibrating tube method

CCOC(C)=O [ethyl acetate] + OCc1ccccc1
x2 = 0
Settings | mass density [kg/m3]
293.15 K | 900.71 ± 1
298.15 K | 894.65 ± 1
303.15 K | 888.52 ± 1
308.15 K | 882.35 ± 1
313.15 K | 876.12 ± 1

CC(=O)OC(C)(C)C [1,1-dimethylethyl ethanoate] + OCc1ccccc1
mass density [kg/m3]
Settings | 293.15 K | 298.15 K | 303.15 K | 308.15 K | 313.15 K
x2 = 0 | 866.95 ± 1 | 861.41 ± 1 | 855.79 ± 1 | 850.17 ± 1 | 844.49 ± 1
x2 = 0.047 | 874.64 ± 1.4 | 869.18 ± 1.4 | 863.68 ± 1.4 | 858.15 ± 1.4 | 852.61 ± 1.5
x2 = 0.0925 | 882.2 ± 1.4 | 876.83 ± 1.4 | 871.43 ± 1.4 | 865.99 ± 1.5 | 860.52 ± 1.5
x2 = 0.2017 | 900.32 ± 1.4 | 895.16 ± 1.4 | 889.77 ± 1.4 | 884.75 ± 1.5 | 879.5 ± 1.5
x2 = 0.3001 | 916.98 ± 1.4 | 912 ± 1.5 | 906.99 ± 1.5 | 901.96 ± 1.5 | 896.9 ± 1.5
x2 = 0.4 | 934.1 ± 1.5 | 929.3 ± 1.5 | 924.47 ± 1.5 | 919.62 ± 1.5 | 914.74 ± 1.5
x2 = 0.4999 | 951.7 ± 1.5 | 947.08 ± 1.5 | 942.4 ± 1.5 | 937.73 ± 1.5 | 933.04 ± 1.5
x2 = 0.6002 | 969.63 ± 1.5 | 965.17 ± 1.5 | 960.68 ± 1.5 | 956.18 ± 1.5 | 951.66 ± 1.5
x2 = 0.7027 | 988.3 ± 1.5 | 984.07 ± 1.5 | 979.75 ± 1.5 | 975.42 ± 1.5 | 971.06 ± 1.5
x2 = 0.7996 | 1006.55 ± 1.5 | 1002.4 ± 1.5 | 998.24 ± 1.5 | 994.06 ± 1.6 | 989.87 ± 1.6
x2 = 0.9059 | 1026.81 ± 1.5 | 1022.83 ± 1.6 | 1018.83 ± 1.6 | 1014.82 ± 1.6 | 1010.79 ± 1.6
x2 = 0.9528 | 1035.96 ± 1.6 | 1032.06 ± 1.6 | 1028.11 ± 1.6 | 1024.17 ± 1.6 | 1020.21 ± 1.6

OC(CCl)CCl [1,3-dichloro-2-propanol] + CC(=O)OC(C)(C)C
mass density [kg/m3]
Settings | 293.15 K | 298.15 K | 303.15 K | 308.15 K | 313.15 K
x1 = 0.0496 | 885.18 ± 2.5 | 879.67 ± 2.5 | 874.08 ± 2.5 | 868.47 ± 2.5 | 862.83 ± 2.5
x1 = 0.0948 | 902.23 ± 2.5 | 896.7 ± 2.5 | 891.14 ± 2.5 | 885.54 ± 2.5 | 879.9 ± 2.5
x1 = 0.2007 | 943.76 ± 2.6 | 938.26 ± 2.6 | 932.7 ± 2.6 | 927.12 ± 2.6 | 921.51 ± 2.6
x1 = 0.3003 | 985.2 ± 2.8 | 979.7 ± 2.8 | 974.18 ± 2.8 | 968.6 ± 2.8 | 963 ± 2.8
x1 = 0.4001 | 1029.14 ± 2.9 | 1023.63 ± 2.9 | 1018.09 ± 2.9 | 1012.51 ± 2.9 | 1006.91 ± 2.9
x1 = 0.4991 | 1075.36 ± 3.1 | 1069.84 ± 3.1 | 1064.27 ± 3.1 | 1058.68 ± 3.1 | 1053.06 ± 3.1
x1 = 0.6003 | 1125.61 ± 3.3 | 1120.05 ± 3.3 | 1114.46 ± 3.2 | 1108.83 ± 3.2 | 1103.17 ± 3.2
x1 = 0.7009 | 1179.16 ± 3.5 | 1173.55 ± 3.5 | 1167.9 ± 3.5 | 1162.21 ± 3.5 | 1156.49 ± 3.5
x1 = 0.8013 | 1236.36 ± 3.7 | 1230.68 ± 3.7 | 1224.95 ± 3.7 | 1219.17 ± 3.7 | 1213.37 ± 3.7
x1 = 0.9032 | 1298.89 ± 3.9 | 1293.07 ± 3.9 | 1287.22 ± 3.9 | 1281.34 ± 3.9 | 1275.42 ± 3.9
x1 = 0.9507 | 1329.66 ± 4.1 | 1323.78 ± 4.1 | 1317.85 ± 4.1 | 1311.9 ± 4.1 | 1305.91 ± 4.1
x1 = 1 | 1362.66 ± 1.1 | 1356.74 ± 1.1 | 1350.72 ± 1.1 | 1344.71 ± 1.1 | 1338.65 ± 1.1

OC(CCl)CCl [1,3-dichloro-2-propanol] + CCOC(C)=O
mass density [kg/m3]
Settings | 293.15 K | 298.15 K | 303.15 K | 308.15 K | 313.15 K
x1 = 0.0442 | 921.07 ± 2.9 | 915.01 ± 2.9 | 909.02 ± 3 | 902.88 ± 3 | 896.68 ± 3
x1 = 0.0967 | 945.13 ± 2.9 | 939.12 ± 2.9 | 933.16 ± 2.9 | 927.05 ± 2.9 | 921.2 ± 3
x1 = 0.1971 | 991 ± 2.9 | 985 ± 2.9 | 979.1 ± 2.9 | 972.97 ± 2.9 | 967.2 ± 2.9
x1 = 0.3019 | 1039.05 ± 2.9 | 1033.15 ± 3 | 1027.3 ± 3 | 1021.22 ± 3 | 1015.41 ± 3
x1 = 0.3939 | 1081.4 ± 3 | 1075.55 ± 3 | 1069.64 ± 3 | 1063.7 ± 3 | 1057.83 ± 3
x1 = 0.4995 | 1130.18 ± 3 | 1124.35 ± 3 | 1118.48 ± 3 | 1112.58 ± 3 | 1106.65 ± 3
x1 = 0.6006 | 1176.92 ± 3 | 1171.1 ± 3 | 1165.25 ± 3 | 1159.37 ± 3 | 1153.45 ± 3
x1 = 0.6993 | 1222.62 ± 3 | 1216.83 ± 3 | 1210.95 ± 3 | 1205.06 ± 3 | 1199.14 ± 3
x1 = 0.8006 | 1269.78 ± 3 | 1263.96 ± 3 | 1258.07 ± 3 | 1252.15 ± 3 | 1246.2 ± 3
x1 = 0.9011 | 1316.79 ± 3 | 1310.89 ± 3 | 1304.97 ± 3 | 1299 ± 3 | 1293.1 ± 3
x1 = 0.953 | 1340.9 ± 3 | 1334.99 ± 3 | 1329.01 ± 3 | 1323.02 ± 3 | 1316.98 ± 3
x1 = 1 | 1362.66 ± 1.1 | 1356.74 ± 1.1 | 1350.72 ± 1.1 | 1344.71 ± 1.1 | 1338.65 ± 1.1

OCc1ccccc1 [benzenemethanol] + CC(=O)OC(C)(C)C
x1 = 1
Settings | mass density [kg/m3]
293.15 K | 1045.21 ± 1
298.15 K | 1041.38 ± 1
303.15 K | 1037.5 ± 1
308.15 K | 1033.63 ± 1
313.15 K | 1029.71 ± 1

C=COC(C)=O [vinyl acetate] + OCc1ccccc1
mass density [kg/m3]
Settings | 293.15 K | 298.15 K | 303.15 K | 308.15 K | 313.15 K
x2 = 0 | 932.41 ± 1 | 926.01 ± 1 | 919.56 ± 1 | 913.07 ± 1 | 906.52 ± 1
x2 = 0.0504 | 940.17 ± 1.4 | 934.2 ± 1.4 | 928.1 ± 1.4 | 922 ± 1.5 | 915.06 ± 1.4
x2 = 0.0954 | 947.04 ± 1.3 | 941.4 ± 1.3 | 935.7 ± 1.3 | 930 ± 1.4 | 922.62 ± 1.4
x2 = 0.1987 | 961.08 ± 1.3 | 955.4 ± 1.3 | 949.66 ± 1.3 | 943.89 ± 1.3 | 938.08 ± 1.4
x2 = 0.2999 | 974.18 ± 1.3 | 968.88 ± 1.3 | 963.51 ± 1.3 | 958.06 ± 1.3 | 952.57 ± 1.3
x2 = 0.3947 | 985.63 ± 1.2 | 980.52 ± 1.2 | 975.38 ± 1.3 | 970.21 ± 1.3 | 965 ± 1.3
x2 = 0.5005 | 997.61 ± 1.2 | 992.77 ± 1.2 | 987.91 ± 1.2 | 983.01 ± 1.2 | 978.09 ± 1.3
x2 = 0.5991 | 1008.19 ± 1.2 | 1003.62 ± 1.2 | 998.97 ± 1.2 | 994.32 ± 1.2 | 989.64 ± 1.2
x2 = 0.7047 | 1019.12 ± 1.2 | 1014.77 ± 1.2 | 1010.36 ± 1.2 | 1005.95 ± 1.2 | 1001.51 ± 1.2
x2 = 0.8037 | 1028.4 ± 1.2 | 1024.23 ± 1.2 | 1020.02 ± 1.2 | 1015.85 ± 1.2 | 1011.55 ± 1.2
x2 = 0.9067 | 1037.37 ± 1.1 | 1033.39 ± 1.2 | 1029.37 ± 1.2 | 1025.33 ± 1.2 | 1021.27 ± 1.2

C=COC(C)=O [vinyl acetate] + OC(CCl)CCl
x2 = 0
Settings | mass density [kg/m3]
293.15 K | 932.41 ± 1
298.15 K | 926.01 ± 1
303.15 K | 919.56 ± 1
308.15 K | 913.07 ± 1
313.15 K | 906.52 ± 1

OCc1ccccc1 [benzenemethanol] + CCOC(C)=O
mass density [kg/m3]
Settings | 293.15 K | 298.15 K | 303.15 K | 308.15 K | 313.15 K
x1 = 0.0452 | 909.04 ± 1.5 | 903.11 ± 1.5 | 897.12 ± 1.5 | 891.1 ± 1.5 | 885.03 ± 1.6
x1 = 0.1047 | 919.57 ± 1.5 | 913.81 ± 1.5 | 908.02 ± 1.5 | 902.18 ± 1.5 | 896.3 ± 1.5
x1 = 0.2008 | 935.91 ± 1.4 | 930.43 ± 1.4 | 924.91 ± 1.4 | 919.36 ± 1.5 | 913.77 ± 1.5
x1 = 0.3043 | 952.73 ± 1.4 | 947.53 ± 1.4 | 942.29 ± 1.4 | 937.02 ± 1.4 | 931.72 ± 1.4
x1 = 0.4 | 967.5 ± 1.4 | 962.53 ± 1.4 | 957.53 ± 1.4 | 952.49 ± 1.4 | 947.43 ± 1.4
x1 = 0.5017 | 982.41 ± 1.3 | 977.66 ± 1.4 | 972.89 ± 1.4 | 968.08 ± 1.4 | 963.26 ± 1.4
x1 = 0.6006 | 996.27 ± 1.3 | 991.73 ± 1.3 | 987.15 ± 1.3 | 982.56 ± 1.3 | 977.95 ± 1.3
x1 = 0.7013 | 1009.5 ± 1.3 | 1005.14 ± 1.3 | 1000.77 ± 1.3 | 996.37 ± 1.3 | 991.97 ± 1.3
x1 = 0.8074 | 1023 ± 1.3 | 1018.86 ± 1.3 | 1014.67 ± 1.3 | 1010.47 ± 1.3 | 1006.26 ± 1.3
x1 = 0.9042 | 1034.66 ± 1.2 | 1030.64 ± 1.2 | 1026.67 ± 1.3 | 1022.63 ± 1.3 | 1018.59 ± 1.3
x1 = 0.9537 | 1040.08 ± 1.2 | 1036.17 ± 1.2 | 1032.23 ± 1.2 | 1028.28 ± 1.2 | 1024.32 ± 1.2
x1 = 1 | 1045.21 ± 1 | 1041.38 ± 1 | 1037.5 ± 1 | 1033.63 ± 1 | 1029.71 ± 1

CC(=O)OC(C)(C)C [1,1-dimethylethyl ethanoate] + OC(CCl)CCl
x2 = 0
Settings | mass density [kg/m3]
293.15 K | 866.95 ± 1
298.15 K | 861.41 ± 1
303.15 K | 855.79 ± 1
308.15 K | 850.17 ± 1
313.15 K | 844.49 ± 1
